Experimental data from patent publication US20130072519A1, “2-PHENYL BENZOYLAMIDES” (priority 2010, published 2013).

system: Apolipoprotein B Secretion from HepG2 Cells; test: Inhibition of Apolipoprotein B secretion from HepG2 cells (ELISA); assay type: cell-based, human; details: HepG2 cells, 22-24 hours incubation, ApoB ELISA; Low/High IC50 columns give the 95% confidence interval
Protocol: Inhibition of Apolipoprotein B Secretion from HepG2 Cells
To assess the inhibitory effect of the compounds of the invention on ApoB production, an endogenously ApoB producing cell line, HEPG2, was implemented in an in vitro ELISA assay. HEPG2 cells are plated at 25,000 per well (96-well plates) in media consisting of DMEM Low Glucose, 1% NEAA (non-essential amino acids), 10% FBS (heat inactivated), 1% L-Glutamine, and 1% Antimycotic-Antibiotic and incubated for 16-18 hours at 37° C. and 5% CO2. After the 16-18 hour incubation, a 12 point half-log serial of the inhibitor (1000 nM-0.003 nM) is prepared, and 1.5 ul of the serial dilution is added to HEPG2 cells, which have had their media decanted and replaced with 148 ul of fresh media, and the cells are incubated for 22-24 hours at 37° C. and 5% CO2. Two and a half hours before the 22-24 hour incubation period is completed, Nunc Maxisorp plates are coated with 100 ul of primary (coating) antibody (goat anti-apoB), diluting to a ratio of 1:1000 in 1% Carbonate-Bicarbonate Coating Buffer and incubated for at least 2 hours at room temperature before the primary antibody is decanted and the wells of the microplate are washed with 200 ul of washing buffer (1% PBS, 0.05% Tween20). Next, 200 ul of blocking buffer (1% PBS, 1:500 Western Block, 5 mg/ml BSA) is added to the wells of the microplate, and incubated for at least 30 mins. Following the 22-24 hours incubation period, cell plates are removed from the incubator, 20 ul of supernatant from each well is aspirated, added to a corresponding well in 96 well plate containing 140 ul of diluent (1:2-Blocking Buffer: Washing Buffer), and mixed. Then, 120 ul is aspirated from the dilutent-supernatant plate, added to the blocked Nunc Maxisorp 96 well plate, and placed at room temperature on a shaker to mix for at least 2 hours. The secondary (capture) antibody (mouse anti-human apoB) is prepared at a ratio of 1:4000, and the detection antibody (goat anti-mouse HRP conjugated antibody) at a ratio of 1:10,000. For each antibody, 100 ul is added to each well of the microplate and the microplate is incubated at room temperature for 2 hours, washing the microplates between each antibody addition. Colorimetric development is achieved by adding 50 ul of TMB reagent to each well, incubating for 5 mins at room temperature, then adding 50 ul of 2M Sulfuric Acid to each well. Absorbance at 450 nm is monitored in an Envision plate reader to measure the amount of ApoB formed.
Results reported as average IC50, low and high IC50 range (95% confidence interval).

Row | IC50 | SMILES
1 | 10.1 nM | CCOC(=O)C1(COC(=O)Cc2ccc(NC(=O)c3ccccc3-c3ccc(C(F)(F)F)cc3)c(C(=O)N(C)C)c2)OC(=O)c2ccccc21 (centres unmarked) [Example 31]
2 | 45.5 nM | CCOC(=O)C1(COC(=O)Cc2ccc(NC(=O)c3ccccc3-c3ccc(C(F)(F)F)cc3)c(C(=O)N(C)C)c2)OC(=O)c2ccccc21 (centres unmarked) [Example 32]
3 | 5.54 nM | COC(=O)C1(COC(=O)Cc2ccc(NC(=O)c3ccccc3-c3ccc(C(F)(F)F)cc3)c(C(=O)N(C)C)c2)CCc2ccccc21 (centres unmarked) [Example 34]
4 | 0.46 nM | CCOC(=O)C1(COC(=O)Cc2ccc(NC(=O)c3ccccc3-c3ccc(C(F)(F)F)cc3)c(C(=O)N(C)C)c2)CCc2ccccc21 (centres unmarked) [Example 35]
5 | 4.6 nM | CCOC(=O)C1(COC(=O)Cc2ccc(NC(=O)c3ccccc3-c3ccc(C(F)(F)F)cc3)c(C(=O)N(C)C)c2)CCc2ccccc21 (centres unmarked) [Example 36]
6 | 19.9 nM | CCOC(=O)C1(COC(=O)Cc2ccc(NC(=O)c3ccccc3-c3ccc(C(F)(F)F)cc3)c(C(=O)N(C)C)c2)CCc2cccnc21 (centres unmarked) [Example 38]
7 | 2.34 nM | CCOC(=O)C1(COC(=O)Cc2ccc(NC(=O)c3ccccc3-c3ccc(C(F)(F)F)cc3)c(C(=O)N(C)C)c2)CCc2cccnc21 (centres unmarked) [Example 39]

Row | SMILES | IC50
8 | CCOC(=O)C1(COC(=O)Cc2ccc(NC(=O)c3cccc(C)c3-c3ccc(C(F)(F)F)cc3)c(C(=O)N(C)C)c2)c2ncccc2C(=O)N1CC (centres unmarked) [Example 47, Ethyl 7-({2-[3-(Dimethylcarbamoyl)-4-({[6-methyl-4′-(trifluoromethyl)biphenyl-2-yl]carbonyl}amino)phenyl]acetoxy}methyl)-6-ethyl-5-oxo-6,7-dihydro-5H-pyrrolo[3,4-b]pyridine-7-carboxylate] | 7.56 nM
9 | CCOC(=O)C1(COC(=O)Cc2ccc(NC(=O)c3cccc(C)c3-c3ccc(C(F)(F)F)cc3)c(C(=O)N(C)C)c2)c2ncccc2C(=O)N1CC (centres unmarked) [Example 48, Ethyl 7-({2-[3-(Dimethylcarbamoyl)-4-({[6-methyl-4′-(trifluoromethyl)biphenyl-2-yl]carbonyl}amino)phenyl]acetoxy}methyl)-6-ethyl-5-oxo-6,7-dihydro-5H-pyrrolo[3,4-b]pyridine-7-carboxylate] | 0.203 nM

same assay, conditions: Homo sapiens, HepG2, HepG2 cells, 22-24 hours incubation, ApoB ELISA; Low/High IC50 columns give the 95% confidence interval

Row | SMILES | IC50
10 | COC(=O)C1(COC(=O)Cc2ccc(NC(=O)c3ccccc3-c3ccc(C(F)(F)F)cc3)c(C(=O)N(C)C)c2)CCc2ccccc21 (centres unmarked) [Example 33] | 6.5 nM
11 | CCOC(=O)C1(COC(=O)Cc2ccc(NC(=O)c3ccccc3-c3ccc(C(F)(F)F)cc3)c(C)c2)OC(=O)c2ccccc21 (centres unmarked) [Example 40] | 159 nM
12 | CCOC(=O)C1(COC(=O)Cc2ccc(NC(=O)c3cccc(C)c3-c3ccc(OC(C)C)cc3)c(C(=O)N(C)C)c2)c2ccccc2C(=O)N1C (centres unmarked) [Example 51, ethyl 1-({2-[3-(dimethylcarbamoyl)-4-{[(4′-isopropoxy-6-methylbiphenyl-2-yl)carbonyl]amino}phenyl]acetoxy}methyl)-2-methyl-3-oxoisoindoline-1-carboxylate] | 0.159 nM
13 | CCOC(=O)C1(COC(=O)Cc2ccc(NC(=O)c3cccc(C)c3-c3ccc(C(C)C)cc3)c(C(=O)N(C)C)c2)c2ccccc2C(=O)N1C (centres unmarked) [Example 53] | 0.242 nM
14 | CCOC(=O)C1(COC(=O)Cc2ccc(NC(=O)c3ccccc3-c3ccc(OC(C)C)cc3)c(C(=O)N(C)C)c2)c2ccccc2C(=O)N1C (centres unmarked) [Example 54, ethyl 1-({2-[3-(dimethylcarbamoyl)-4-{[(4′-isopropoxybiphenyl-2-yl)carbonyl]amino}phenyl]acetoxy}methyl)-2-methyl-3-oxoisoindoline-1-carboxylate] | 0.124 nM
15 | CCOC(=O)C1(COC(=O)Cc2ccc(NC(=O)c3ccc(C(F)(F)F)cc3-c3ccc(C(F)(F)F)cc3)c(C(=O)N(C)C)c2)c2ccccc2C(=O)N1C (centres unmarked) [Example 55, ethyll-({2-[4-({[4′,5-bis(trifluoromethyl)biphenyl-2-yl]carbonyl}amino)-3-(dimethylcarbamoyl)phenyl]acetoxy}methyl)-2-methyl-3-oxoisoindoline-1-carboxylate] | 0.154 nM
16 | CCOC(=O)C1(COC(=O)Cc2ccc(NC(=O)c3cccc(C)c3-c3ccc(OC(C)C)cc3)c(C(=O)N(C)C)c2)CCc2cccnc21 (centres unmarked) [Example 57, ethyl 7-({2-[3-(dimethylcarbamoyl)-4-{[(4′-isopropoxy-6-methylbiphenyl-2-yl)carbonyl]amino}phenyl]acetoxy}methyl)-6,7-dihydro-5H-cyclopenta[b]pyridine-7-carboxylate] | 1.37 nM
17 | CCOC(=O)C1(COC(=O)Cc2ccc(NC(=O)c3ccc(C(F)(F)F)cc3-c3ccc(C(F)(F)F)cc3)c(C(=O)N(C)C)c2)CCc2cccnc21 (centres unmarked) [Example 58, ethyl 7-({2-[4-({[4′,5-bis(trifluoromethyl)biphenyl-2-yl]carbonyl}amino)-3-(dimethylcarbamoyl)phenyl]acetoxy}methyl)-6,7-dihydro-5H-cyclopenta[b]pyridine-7-carboxylate] | 7.18 nM
18 | CCOC(=O)[C@]1(COC(=O)Cc2ccc(NC(=O)c3cccc(C)c3-c3ccc(C(F)(F)F)cc3)c(C(=O)N3CCCCC3)c2)c2ccccc2C(=O)N1C [Example 62, ethyl (1R)-2-methyl-1-({2-[4-({[6-methyl-4′-(trifluoromethyl)biphenyl-2-yl]carbonyl}amino)-3-(piperidin-1-ylcarbonyl)phenyl]acetoxy}methyl)-3-oxoisoindoline-1-carboxylate] | 1.17 nM
19 | CCOC(=O)[C@]1(COC(=O)Cc2ccc(NC(=O)c3cccc(OC)c3-c3ccc(OC(C)C)cc3)c(C(=O)N(C)C)c2)c2ccccc2C(=O)N1C [Example 63, ethyl (1R)-1-({2-[3-(dimethylcarbamoyl)-4-{[(4′-isopropoxy-6-methoxybiphenyl-2-yl)carbonyl]amino}phenyl]acetoxy}methyl)-2-methyl-3-oxoisoindoline-1-carboxylate] | 0.119 nM
20 | CCOC(=O)[C@]1(COC(=O)Cc2ccc(NC(=O)c3cccc(OC)c3-c3ccccc3)c(C(=O)N(C)C)c2)c2ccccc2C(=O)N1C [Example 64, ethyl (1R)-1-({2-[3-(dimethylcarbamoyl)-4-{[(6-methoxybiphenyl-2-yl)carbonyl]amino}phenyl]acetoxy}methyl)-2-methyl-3-oxoisoindoline-1-carboxylate] | 0.536 nM
21 | CCOC(=O)[C@]1(COC(=O)Cc2ccc(NC(=O)c3ccccc3-c3ccc(C(C)(C)C)cc3)c(C(=O)N(C)C)c2)c2ccccc2C(=O)N1C [Example 66, ethyl (1R)-1-({2-[4-{[(4′-tert-butylbiphenyl-2-yl)carbonyl]amino}-3-(dimethylcarbamoyl)phenyl]acetoxy}methyl)-2-methyl-3-oxoisoindoline-1-carboxylate] | 0.206 nM
22 | CCOC(=O)[C@]1(COC(=O)Cc2ccc(NC(=O)c3cccc(C)c3-c3ccc(C(C)(C)C)cc3)c(C(=O)N(C)C)c2)c2ccccc2C(=O)N1C [Example 67, ethyl (1R)-1-({2-[4-{[(4′-tert-butyl-6-methylbiphenyl-2-yl)carbonyl]amino}-3-(dimethylcarbamoyl)phenyl]acetoxy}methyl)-2-methyl-3-oxoisoindoline-1-carboxylate] | 0.244 nM
23 | CCOC(=O)[C@]1(COC(=O)Cc2ccc(NC(=O)c3ccc(C)cc3-c3ccc(C(C)(C)C)cc3)c(C(=O)N(C)C)c2)c2ccccc2C(=O)N1C [Example 68, ethyl (1R)-1-({2-[4-{[(4′-tert-butyl-5-methylbiphenyl-2-yl)carbonyl]amino}-3-(dimethylcarbamoyl)phenyl]acetoxy}methyl)-2-methyl-3-oxoisoindoline-1-carboxylate] | 0.178 nM
